The text below walks through data of publication PMC7881127, “Cholesterol as a modulator of cannabinoid receptor CB2 signaling” (Scientific Reports, 2021).

Structures are written as SMILES. “Also recorded” adds a separate entry of the source.

For assay [1], the target named is T1, cannabinoid receptor CB2 (Homo sapiens, UniProt P34972). In words: GEF G protein activation assay on purified CB2 reconstituted in liposomes. On the set-up: E. coli construct) (cleaved yes); twin-Streptag (N); His10 (C); made in house; host or cells: E. coli BL21 (DE3) and Expi293F GNTI-. In kind it is biochemical. The text has this: To assess the possible role of post-translational modifications of CB2 on its activation by the MRI ligands, the recombinant CB2 receptor was isolated from two different expression cell lines, E. coli BL21 (DE3)[41] and Expi293F GNTI^-[42]. The protein was purified and reconstituted into lipid bilayers containing 1-palmitoyl-2-oleoyl-glycero-3-phosphocholine (POPC) and, 1-palmitoyl-2-oleoyl-sn-glycero-3-phospho-(1′-rac-glycerol) (POPG) at a molar ratio of 3/1, either supplemented or not supplemented with cholesterol, as described in “Methods”[10],[13]. We reported previously that the presence of phospholipids with a negatively charged headgroup stabilizes CB2 protein in lipid bilayers. Therefore, purified CB2 was reconstituted into POPC/POPG (3/1, mol/mol) liposomes containing 0, 20 and 40 mol% cholesterol (reported as total content of lipids) as described in “Methods”. In one case, the protein purified from E. coli cells was reconstituted into lipids extracted from brain tissue (Avanti Polar Lipids). The ratio of protein-to-lipid in the resulting samples was in the range of 1:850 to1:1100 (mol/mol). The levels of protein, and the density of ligand binding sites for receptor preparations reconstituted in liposomes with different content of cholesterol varied only slightly (Supporting Fig. 5a,b).
T1 sequence (P34972 whole entry): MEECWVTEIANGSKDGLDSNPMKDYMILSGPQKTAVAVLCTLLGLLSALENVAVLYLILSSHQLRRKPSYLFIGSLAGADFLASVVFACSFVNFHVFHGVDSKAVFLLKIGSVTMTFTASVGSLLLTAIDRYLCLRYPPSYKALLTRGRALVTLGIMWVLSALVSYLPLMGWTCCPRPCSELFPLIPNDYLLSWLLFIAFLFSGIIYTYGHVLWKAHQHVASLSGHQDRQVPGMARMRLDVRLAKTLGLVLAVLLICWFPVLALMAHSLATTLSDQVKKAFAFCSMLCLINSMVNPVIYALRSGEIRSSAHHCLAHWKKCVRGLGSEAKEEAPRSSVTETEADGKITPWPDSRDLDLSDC
Figure 7 Activation of G protein on CB2 receptor reconstituted in liposomes. Liposome composition: 75% POPC, 25% POPG and cholesterol content relative to total phospholipids as indicated, or total lipids extracted from bovine brain, as indicated. Proteins were reconstituted at a protein-to-lipid ratio in the range 1:850 to 1:1100 mol/mol. (a–d) CB2 purified from E. coli cells. (e,f) CB2 purified from Expi293F GNTI^- cells. Average values of four independent measurements are plotted (n = 4). Dotted lines represent the rates of activation of G protein in the absence of a ligand.
Reconstitution of the purified CB2 into liposomes was performed as described earlier. Briefly, 200 μg of the purified protein was mixed with 2 mg of lipid mixture (POPC:POPG, 3:1, mol/mol without or with addition or 20 mol% or 40 mol% of cholesterol) solubilized in 1% CHAPS at a concentration of 5 mg lipid/mL, and incubated on ice for 30 min. The detergents were then removed on 4 mL Detergent Removal spin column (Pierce), according to manufacturer’s instructions. The combined filtrate containing proteoliposomes was collected, and aliquots frozen in liquid nitrogen. Frozen liposomes were stored at − 80 °C until further use. Content of protein in proteoliposomes was determined by BioRad DC assay.
(§1) The subunits of G protein were expressed and purified as described previously. The nucleotide exchange assay was performed as previously described.

The target in a further assay is T2, hCB2 (Homo sapiens, UniProt P34972).
T2 construct: purchased PerkinElmer ES111-M400UA; host or cells: CHO-K1 cells stably transfected
T2 sequence (P34972 whole entry): as above
As to the kind of experiment: Radioligand ([3H]CP-55,940) displacement binding in hCB2-CHO-K1 cell membranes. On the procedure:
The assay was performed as described previously. […] Plasma membranes were from cultured CHO-K1 cells stably transfected with human CB2R (Perkin Elmer). Two microgram plasma membrane protein was used in a 1 mL reaction mixture. Ki values were derived by computerized curve fitting and using the Cheng-Prusoff equation to account for the affinity of the radioligand, using the GraphPad Prism 8 program (GraphPad Prism Software Inc.).

Assay [2] addresses T1, cannabinoid receptor CB2. In words: [35S]GTP nucleotide exchange (GEF) G protein activation assay on CB2 in cell membrane preparations. The format is biochemical. Also on record: purchased PerkinElmer; Millipore ChemiScreen; Applied Cell Sciences; Signal Screen (Sf9); E. coli BL21 (DE3) and Expi293F membranes were made in house; ES111-M400UA; A318; 6110130; host or cells: CHO, CHO-K1, Sf9, Expi293F, Expi293F GNTI-, E. coli BL21 (DE3).
From the text: To better understand the reason for these discrepancies, we assessed the activation of CB2 receptor by the in vitro G protein activation assay that measures the rates of nucleotide exchange on the Gα subunit of G protein (GEF assay) as described previously[33],[34]. The assay reports the rates of formation of the complex of [^35S]-GTPγS, a homolog of GTP, with the Gα subunit of G protein. Typical assay conditions require small (nanogram) quantities of the receptor protein either in cell membranes or reconstituted into lipid bilayers. The readout of the assay is the amount of the non-hydrolysable complex of Gα with [^35S]-GTPγS which, under selected experimental conditions, is proportional to the amount of activated receptor in the assay.
Figure 3 GEF of CB2 expressed in: (a) E. coli membranes and (b) CHO membranes (Millipore EMD). 2 μg of total protein per assay. Each point represents an average of four independent measurements (n = 4). Ligands were added at a concentration of 2 μM to ensure saturation of the receptor, and G protein was added as described in “Methods”. The dotted line indicates the rates of activation of G protein in the absence of a ligand. The rates of activation with […] are set to 100%, and rates of activation in the presence of SR-144,528 to 0%.
Figure 4 GEF on CB2 expressed in different cell lines. An amount of 2 μg of membrane protein per assay was used. Each data points represents an average of four independent measurements (n = 4) with error rates indicated by the bars. 100% represents full activation in the presence of 2 μM of CP-55,940, and 0%–with 2 μM SR-144,528.
as §1

In general, Ki refers to a dissociation constant, usually derived from enzyme kinetics or from competition with a known ligand. As to `CC(=O)OCCn1c(=NC(=O)C2C(C)(C)C2(C)C)sc2cc(Cl)ccc21` [MRI-2646, 2-(6-Chloro-2-((2,2,3,3-tetramethylcyclopropane-1-carbonyl)imino)benzo[d]thiazol-3(2H)-yl)ethyl acetate], the “Pharmacological category in GEF assay” value at cannabinoid receptor CB2 [1] (CB2 from E. coli, POPC/POPG liposomes devoid of cholesterol) is reported as “partial agonist”; at cannabinoid receptor CB2 [1] (CB2 from E. coli, liposomes with 20% or 40% cholesterol or brain lipid extract) it was “partial inverse agonist”; on cannabinoid receptor CB2 [1] (CB2 from Expi293F GNTI- (HEK) cells, liposomes with 40% of cholesterol), “partial inverse agonist”; at cannabinoid receptor CB2 [1] (CB2 from Expi293F GNTI- cells, liposomes without cholesterol) it was “partial agonist”; on cannabinoid receptor CB2 [2] (CB2 in CHO membranes (EMD Millipore), ligand 2 μM), “partial inverse agonist”; at cannabinoid receptor CB2 [2] (CB2 in CHO membranes (PerkinElmer)), “neutral antagonist”. The “Pharmacological category in GEF assay” value on cannabinoid receptor CB2 [2] (CB2 in CHO-K1 membranes (Applied Cell Sciences)) is recorded as “partial inverse agonist”; on cannabinoid receptor CB2 [2] (CB2 in E. coli BL21 (DE3) membranes (untreated), ligand 2 μM), “partial agonist; also recorded: agonistic effects; also recorded: weaker agonist”; at cannabinoid receptor CB2 [2] (CB2 in Expi293F GNTI- membranes), “partial inverse agonist”; on cannabinoid receptor CB2 [2] (CB2 in Expi293F membranes), “partial inverse agonist”; at cannabinoid receptor CB2 [2] (CB2 in baculovirus infected insect Sf9 cell membranes) it was “partial agonist”; at cannabinoid receptor CB2 [2] (CHO membranes (PerkinElmer), with and without exogenous G protein), “neutral antagonist”. Besides, the “Pharmacological category in GEF assay” value on cannabinoid receptor CB2 [2] (E. coli membranes treated with 20 mM MβCD/cholesterol) is recorded as “neutral antagonist”; on cannabinoid receptor CB2 [2] (Expi293F membranes treated with 20 mM MβCD (cholesterol depleted)) it was “partial agonist”; on cannabinoid receptor CB2 [2] (Expi293F membranes, with and without exogenous G protein), “inverse agonist”; at cannabinoid receptor CB2 [2] (Sf9 membranes, with and without exogenous G protein), “partial agonist”. The molecule further yielded a Ki on hCB2 of 0.079 ± 0.011 nM. The “Pharmacological category on CB2” value at cannabinoid receptor CB2 [2] (bacterial- and insect-cell membranes) is given as “partial agonist”; at cannabinoid receptor CB2 [2] (cholesterol-containing membranes), “neutral antagonist or a partial inverse agonist; also recorded: either as an inverse agonist or a neutral antagonist”; at cannabinoid receptor CB2 [2] (mammalian cell membranes), “inverse agonist or neutral antagonist”; at cannabinoid receptor CB2 [2] (membranes devoid of cholesterol), “partial agonist”.
